Experimental data reported in PubChem BioAssay AID743440 (Broad Institute, 2014).
The source made the active and inactive calls.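 Rule for the calls: active = AC50 for cell killing below 10 µM, with the signal falling as expected; inactive = the rest, including compounds acting in the opposite direction.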

System: HepG2 viability, ATP luminescence (CellTiter-Glo), 72 h
Assay: HepG2 cell cytotoxicity, dose response, cytotoxicity control, plate reader, dry powder, set 11 (AID 743440)
Conditions: not given

| Structure (SMILES) | AC50 |
| --- | --- |
| O=C(CSc1c2c(nc3ccc(Cl)cc13)CCCC2)NC1CCN(Cc2ccccc2)CC1 | 26.3 µM |
| O=C(CSc1c2c(nc3ccc(Cl)cc13)CCCC2)N1CCN(Cc2ccccc2)CC1 | > 52 µM (inactive) |
| COc1ccc(CNC(=O)CSc2c3c(nc4ccc(Cl)cc24)CCCC3)cc1 | > 52 µM (inactive) |
| O=C(CSc1c2c(nc3ccc(Cl)cc13)CCCC2)NC1CC1 | > 52 µM (inactive) |
| O=C(COc1ccc(C(=O)NC2CCCCC2)cc1)Nc1cccc(C(F)(F)F)c1 | > 52 µM (inactive) |
| CC(Sc1c2c(nc3ccc(Cl)cc13)CCCC2)C(=O)NCc1ccco1 (configuration not stated) | > 52 µM (inactive) |
| O=C(CSc1c2c(nc3ccc(Cl)cc13)CCCC2)Nc1ccc(Cl)cc1 | > 52 µM (inactive) |
| O=C(CSc1c2c(nc3ccccc13)CCCC2)NCc1ccco1 | > 52 µM (inactive) |
| COc1cc(CNCCCN2CCOCC2)ccc1OCC(=O)Nc1cccc(C(F)(F)F)c1 | > 24 µM (inactive) |
| Cc1ccc(CNC(=O)CSc2c3c(nc4ccc(Cl)cc24)CCCC3)o1 | > 52 µM (inactive) |
| Cc1ccc(CNC(=O)CSc2c3c(nc4ccc(Cl)cc24)CCCC3)cc1 | > 52 µM (inactive) |
| CN(C(=O)COc1ccccc1C(=O)NCCc1ccccc1)c1ccccc1 | > 52 µM (inactive) |
| O=C(CSc1c2c(nc3ccc(Cl)cc13)CCCC2)NCc1ccc2c(c1)OCO2 | > 52 µM (inactive) |
| CCN(CC)CCCNC(=O)c1ccc(OCC(=O)Nc2ccccc2C(F)(F)F)c(OC)c1 | > 52 µM (inactive) |
| COc1cc(C(=O)NCCCN(C)C)ccc1OCC(=O)Nc1cccc(C(F)(F)F)c1 | > 52 µM (inactive) |
| O=C(CSc1c2c(nc3cc(Cl)ccc13)CCCC2)N(Cc1ccco1)C1CCCC1 | > 52 µM (inactive) |
| CN(CCNC(=O)CSc1c2c(nc3ccc(Cl)cc13)CCCC2)Cc1ccccc1 | > 52 µM (inactive) |
| Cc1cccc(NC(=O)CSc2c3c(nc4ccc(Cl)cc24)CCCC3)n1 | 26.2 µM |
| CC1(C)CC(NC(=O)c2ccc(OCC(=O)Nc3cccc(C(F)(F)F)c3)cc2)CC(C)(C)N1 | > 52 µM (inactive) |
| CCCCOc1ccc(NC(=O)COc2ccccc2C(=O)NCCOc2ccccc2)cc1 | > 52 µM (inactive) |
| CCCNC(=O)CSc1c2c(nc3ccc(Cl)cc13)CCCC2 | > 52 µM (inactive) |
| O=C(CSc1c2c(nc3ccc(Cl)cc13)CCCC2)N1CCOCC1 | > 52 µM (inactive) |
| CCN1CCCC1CNC(=O)CSc1c2c(nc3ccc(Cl)cc13)CCCC2 (configuration not stated) | 16.1 µM |
| COCCNC(=O)CSc1c2c(nc3ccc(Cl)cc13)CCCC2 | > 52 µM (inactive) |
| O=C(COc1ccccc1C(=O)NCCOc1ccc(Cl)cc1)Nc1cccc(Cl)c1 | > 52 µM (inactive) |

System: not listed separately
Assay: as above
Conditions: HepG2 viability, ATP luminescence (CellTiter-Glo), 72 h; at 12 µM (top of the series)

| Structure (SMILES) | activity change, negative = cytotoxicity |
| --- | --- |
| O=C(CSc1c2c(nc3ccc(Cl)cc13)CCCC2)NCc1cccs1 | -11.9% (inactive) |

Same assay, conditions: HepG2 viability, ATP luminescence (CellTiter-Glo), 72 h; at 26 µM (top of the series)

| Structure (SMILES) | activity change, negative = cytotoxicity |
| --- | --- |
| O=C(COc1ccc(C(=O)NCC2CCCO2)cc1)Nc1cccc(C(F)(F)F)c1 (configuration not stated) | -9.73% (inactive) |
| O=C(CSc1c2c(nc3ccc(Cl)cc13)CCCC2)N1CCNC1=O | -15.2% (inactive) |
| CN(C(=O)COc1ccccc1C(=O)Nc1ccccc1)c1ccccc1 | -11.2% (inactive) |
| O=C(COc1ccccc1C(=O)NCc1ccccc1)Nc1ccccc1 | -9.2% (inactive) |
| Cc1ccc2nc(Cl)cc(SCC(=O)NCc3ccco3)c2c1 | -16.7% (inactive) |
| O=C(CSc1c2c(nc3ccc(Cl)cc13)CCCC2)N1CCCCC1 | -19.8% (inactive) |
| Cn1cc(SCC(=O)NCc2ccco2)c2ccccc21 | -5.75% (inactive) |
| CCOC(=O)C1CCN(C(=O)c2ccc(OCC(=O)Nc3ccc(OCC)cc3)c(OC)c2)CC1 | -2.93% (inactive) |
| CN(C)c1ccc(NC(=O)COc2ccccc2C(=O)N2CCOCC2)cc1 | 8.33% (inactive) |
| CN(C(=O)COc1ccc(Cl)cc1C(N)=O)c1ccccc1 | 6.24% (inactive) |
| CCN(CC)C(=O)CSc1c2c(nc3ccc(Cl)cc13)CCCC2 | -8.05% (inactive) |
| Cc1ccc(NC(=O)COc2ccccc2C(=O)NCCN(C)C)cc1 | -14.7% (inactive) |
| O=C(COc1ccc(C(=O)N2CCN(C(=O)C3CC3)CC2)cc1)Nc1cccc(C(F)(F)F)c1 | -22.9% (inactive) |
| O=C(COc1ccc(C(=O)N2CCC2)cc1)Nc1cccc(C(F)(F)F)c1 | -3.29% (inactive) |
| NC(=O)C1CCN(C(=O)c2ccc(OCC(=O)Nc3cccc(C(F)(F)F)c3)cc2)CC1 | -3.5% (inactive) |
| O=C(CSc1cccc2cccnc12)NCc1ccco1 | 9.13% (inactive) |
| CN(CCOc1ccccc1)C(=O)c1ccc(OCC(=O)Nc2cccc(C(F)(F)F)c2)cc1 | -1.92% (inactive) |
| CN(C(=O)COc1ccccc1C(N)=O)c1ccccc1 | 2.01% (inactive) |
| CCOC(=O)C1CCN(C(=O)c2ccc(OCC(=O)N3CCOCC3)c(OC)c2)CC1 | -12.3% (inactive) |
| COc1ccc(OCCNC(=O)c2ccccc2OCC(=O)Nc2ccc(NC(C)=O)cc2)cc1 | -7.48% (inactive) |
| COc1ccc(N(Cc2cccs2)C(=O)COc2ccccc2C(=O)Nc2ccccc2)cc1 | -1.88% (inactive) |
| O=C(O)CSc1c2c(nc3cc(C(=O)NCc4cccs4)ccc13)CCCC2 | -3.5% (inactive) |
| COC(=O)CCCN(C)C(=O)c1ccc(OCC(=O)Nc2cccc(OC)c2)cc1 | -8.54% (inactive) |
| O=C(CSc1ccc2ccccc2n1)NCc1ccco1 | -2.89% (inactive) |
| CCOc1ccc(NC(=O)COc2ccc(C(=O)N3CCC(C(N)=O)CC3)cc2OC)cc1 | -12.6% (inactive) |
| Cn1c(=O)cc(SCC(=O)NCc2ccco2)c2ccccc21 | 2.16% (inactive) |
